In PubChem BioAssay (NCI):
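The concentration for 50% growth inhibition is given as GI50. TGI: concentration producing complete growth inhibition.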

Assays:
Test in all cases: NCI-60 cell line screen, 384-well format; in the data active = GI50 below about 0.43 µM; inactive = the rest
ACHN renal = test system: ACHN renal
HL-60(TB) leukemia = test system: HL-60(TB) leukemia
SN12C renal = test system: SN12C renal
DU-145 prostate = test system: DU-145 prostate
UACC-62 melanoma = test system: UACC-62 melanoma
SW-620 colon = test system: SW-620 colon
HCC-2998 colon = test system: HCC-2998 colon
SF-268 CNS = test system: SF-268 CNS
NCI-H460 NSCLC = test system: NCI-H460 NSCLC
HOP-62 NSCLC = test system: HOP-62 NSCLC
K-562 leukemia = test system: K-562 leukemia
SF-295 CNS = test system: SF-295 CNS
OVCAR-3 ovarian = test system: OVCAR-3 ovarian
MCF7 breast = test system: MCF7 breast
SF-539 CNS = test system: SF-539 CNS
SNB-19 CNS = test system: SNB-19 CNS
RXF 393 renal = test system: RXF 393 renal
T-47D breast = test system: T-47D breast
OVCAR-5 ovarian = test system: OVCAR-5 ovarian
NCI-H226 lung = test system: NCI-H226 lung
M14 melanoma = test system: M14 melanoma
BT-549 breast = test system: BT-549 breast
NCI-H522 lung = test system: NCI-H522 lung
KM12 colon = test system: KM12 colon
HCT-116 colon = test system: HCT-116 colon
IGROV1 ovarian = test system: IGROV1 ovarian
OVCAR-4 ovarian = test system: OVCAR-4 ovarian
SK-OV-3 ovarian = test system: SK-OV-3 ovarian
SK-MEL-5 melanoma = test system: SK-MEL-5 melanoma
786-0 renal = test system: 786-0 renal
UO-31 renal = test system: UO-31 renal
HT29 colon = test system: HT29 colon
MDA-MB-231 breast = test system: MDA-MB-231 breast
SNB-75 CNS = test system: SNB-75 CNS
NCI-H322M lung = test system: NCI-H322M lung
MOLT-4 leukemia = test system: MOLT-4 leukemia
SR leukemia = test system: SR leukemia
SK-MEL-28 melanoma = test system: SK-MEL-28 melanoma
MDA-MB-468 breast = test system: MDA-MB-468 breast
CAKI-1 renal = test system: CAKI-1 renal
MDA-MB-435 melanoma = test system: MDA-MB-435 melanoma
NCI-H23 lung = test system: NCI-H23 lung
RPMI-8226 leukemia = test system: RPMI-8226 leukemia
OVCAR-8 ovarian = test system: OVCAR-8 ovarian
TK-10 renal = test system: TK-10 renal
HCT-15 colon = test system: HCT-15 colon
COLO 205 colon = test system: COLO 205 colon

C#Cc1cccc(Nc2ncnc3cc(OCCOC)c(OCCOC)cc23)c1
> 67.5 µM: TGI (SR leukemia)
> 72.3 µM: TGI (SF-268 CNS)
3.47 µM: TGI (NCI-H522 lung)
> 89 µM: TGI (T-47D breast)
inactive: GI50 (HL-60(TB) leukemia) 6.29 µM | GI50 (SN12C renal) 3.79 µM | GI50 (DU-145 prostate) 1.98 µM | GI50 (UACC-62 melanoma) 6.74 µM | GI50 (SW-620 colon) > 100 µM | GI50 (HCC-2998 colon) 48.4 µM | GI50 (SF-268 CNS) 21.2 µM | GI50 (NCI-H460 NSCLC) 9.81 µM | GI50 (HOP-62 NSCLC) 28.5 µM | GI50 (K-562 leukemia) 7.57 µM | GI50 (SF-295 CNS) > 51.9 µM | GI50 (OVCAR-3 ovarian) 4.02 µM | GI50 (MCF7 breast) > 100 µM | GI50 (SF-539 CNS) 39.3 µM | GI50 (SNB-19 CNS) > 100 µM | GI50 (RXF 393 renal) 7.83 µM | GI50 (T-47D breast) 6.56 µM | GI50 (OVCAR-5 ovarian) 6.96 µM | GI50 (NCI-H226 lung) 9.26 µM | GI50 (M14 melanoma) 6.72 µM | GI50 (BT-549 breast) 14.9 µM | GI50 (NCI-H522 lung) 0.433 µM | GI50 (KM12 colon) > 27.8 µM | GI50 (HCT-116 colon) 11.6 µM | GI50 (OVCAR-4 ovarian) 32 µM | GI50 (SK-OV-3 ovarian) 1.58 µM | GI50 (SK-MEL-5 melanoma) 1.94 µM | GI50 ([…]-0 renal) 6.46 µM | GI50 (UO-31 renal) 2.04 µM | GI50 (HT29 colon) > 90.8 µM | GI50 (MDA-MB-231 breast) > 46.6 µM | GI50 (SNB-75 CNS) 8 µM | GI50 (MOLT-4 leukemia) 7.14 µM | GI50 (SR leukemia) 21.4 µM | GI50 (SK-MEL-28 melanoma) > 85.1 µM | GI50 (CAKI-1 renal) 1.83 µM | GI50 (MDA-MB-435 melanoma) > 100 µM | GI50 (NCI-H23 lung) 25.2 µM | GI50 (RPMI-8226 leukemia) 7.94 µM | GI50 (OVCAR-8 ovarian) 7.75 µM | GI50 (TK-10 renal) 0.849 µM | GI50 (HCT-15 colon) 4.58 µM | GI50 (COLO 205 colon) > 100 µM
> 25.8 µM: TGI (ACHN renal)
> 32.4 µM: TGI (UO-31 renal)
0.777 µM: TGI (MDA-MB-468 breast)
active: GI50 (ACHN renal) 0.329 µM | GI50 (IGROV1 ovarian) 0.385 µM | GI50 (NCI-H322M lung) 0.193 µM | GI50 (MDA-MB-468 breast) 0.183 µM
> 88.4 µM: TGI (RPMI-8226 leukemia)
> 100 µM: TGI (SN12C renal) | TGI (DU-145 prostate) | TGI (SW-620 colon) | TGI (HCC-2998 colon) | TGI (NCI-H460 NSCLC) | TGI (HOP-62 NSCLC) | TGI (K-562 leukemia) | TGI (SF-295 CNS) | TGI (OVCAR-3 ovarian) | TGI (MCF7 breast) | TGI (SF-539 CNS) | TGI (SNB-19 CNS) | TGI (OVCAR-5 ovarian) | TGI (NCI-H226 lung) | TGI (M14 melanoma) | TGI (BT-549 breast) | TGI (KM12 colon) | TGI (HCT-116 colon) | TGI (OVCAR-4 ovarian) | TGI (786-0 renal) | TGI (HT29 colon) | TGI (MDA-MB-231 breast) | TGI (SK-MEL-28 melanoma) | TGI (MDA-MB-435 melanoma) | TGI (NCI-H23 lung) | TGI (OVCAR-8 ovarian) | TGI (TK-10 renal) | TGI (HCT-15 colon) | TGI (COLO 205 colon)
> 43.1 µM: TGI (HL-60(TB) leukemia)
> 51.9 µM: TGI (MOLT-4 leukemia)
8.89 µM: TGI (CAKI-1 renal)
> 26.3 µM: TGI (SK-MEL-5 melanoma)
8.28 µM: TGI (SK-OV-3 ovarian)
50.5 µM: TGI (SNB-75 CNS)
> 27.3 µM: TGI (RXF 393 renal)
5.62 µM: TGI (IGROV1 ovarian)
1.66 µM: TGI (NCI-H322M lung)
> 90.5 µM: TGI (UACC-62 melanoma)

CC(=O)OC[C@H]1O[C@@H](n2ccc(=O)[nH]c2=O)[C@H](OC(C)=O)[C@@H]1OC(C)=O
> 100 µM: TGI (ACHN renal) | TGI (HL-60(TB) leukemia) | TGI (SN12C renal) | TGI (DU-145 prostate) | TGI (UACC-62 melanoma) | TGI (SW-620 colon) | TGI (HCC-2998 colon) | TGI (SF-268 CNS) | TGI (NCI-H460 NSCLC) | TGI (HOP-62 NSCLC) | TGI (K-562 leukemia) | TGI (SF-295 CNS) | TGI (OVCAR-3 ovarian) | TGI (MCF7 breast) | TGI (SF-539 CNS) | TGI (SNB-19 CNS) | TGI (RXF 393 renal) | TGI (T-47D breast) | TGI (OVCAR-5 ovarian) | TGI (NCI-H226 lung) | TGI (M14 melanoma) | TGI (BT-549 breast) | TGI (NCI-H522 lung) | TGI (KM12 colon) | TGI (HCT-116 colon) | TGI (IGROV1 ovarian) | TGI (OVCAR-4 ovarian) | TGI (SK-OV-3 ovarian) | TGI (SK-MEL-5 melanoma) | TGI (786-0 renal) | TGI (UO-31 renal) | TGI (HT29 colon) | TGI (MDA-MB-231 breast) | TGI (SNB-75 CNS) | TGI (NCI-H322M lung) | TGI (MOLT-4 leukemia) | TGI (SR leukemia) | TGI (SK-MEL-28 melanoma) | TGI (MDA-MB-468 breast) | TGI (CAKI-1 renal) | TGI (MDA-MB-435 melanoma) | TGI (NCI-H23 lung) | TGI (RPMI-8226 leukemia) | TGI (OVCAR-8 ovarian) | TGI (TK-10 renal) | TGI (HCT-15 colon) | TGI (COLO 205 colon)
inactive: GI50 (ACHN renal) > 100 µM | GI50 (HL-60(TB) leukemia) > 100 µM | GI50 (SN12C renal) > 100 µM | GI50 (DU-145 prostate) > 100 µM | GI50 (UACC-62 melanoma) > 100 µM | GI50 (SW-620 colon) > 100 µM | GI50 (HCC-2998 colon) > 100 µM | GI50 (SF-268 CNS) > 100 µM | GI50 (NCI-H460 NSCLC) > 100 µM | GI50 (HOP-62 NSCLC) > 100 µM | GI50 (K-562 leukemia) > 100 µM | GI50 (SF-295 CNS) > 100 µM | GI50 (OVCAR-3 ovarian) > 100 µM | GI50 (MCF7 breast) > 100 µM | GI50 (SF-539 CNS) > 100 µM | GI50 (SNB-19 CNS) > 100 µM | GI50 (RXF 393 renal) > 100 µM | GI50 (T-47D breast) > 100 µM | GI50 (OVCAR-5 ovarian) > 100 µM | GI50 (NCI-H226 lung) > 100 µM | GI50 (M14 melanoma) > 100 µM | GI50 (BT-549 breast) > 100 µM | GI50 (NCI-H522 lung) > 100 µM | GI50 (KM12 colon) > 100 µM | GI50 (HCT-116 colon) > 100 µM | GI50 (IGROV1 ovarian) > 100 µM | GI50 (OVCAR-4 ovarian) > 100 µM | GI50 (SK-OV-3 ovarian) > 100 µM | GI50 (SK-MEL-5 melanoma) > 100 µM | GI50 ([…]-0 renal) > 100 µM | GI50 (UO-31 renal) > 100 µM | GI50 (HT29 colon) > 100 µM | GI50 (MDA-MB-231 breast) > 100 µM | GI50 (SNB-75 CNS) > 100 µM | GI50 (NCI-H322M lung) > 100 µM | GI50 (MOLT-4 leukemia) > 100 µM | GI50 (SR leukemia) > 100 µM | GI50 (SK-MEL-28 melanoma) > 100 µM | GI50 (MDA-MB-468 breast) > 100 µM | GI50 (CAKI-1 renal) > 100 µM | GI50 (MDA-MB-435 melanoma) > 100 µM | GI50 (NCI-H23 lung) > 100 µM | GI50 (RPMI-8226 leukemia) > 100 µM | GI50 (OVCAR-8 ovarian) > 100 µM | GI50 (TK-10 renal) > 100 µM | GI50 (HCT-15 colon) > 100 µM | GI50 (COLO 205 colon) > 100 µM
